Here are results for 1 compound from patent publication US20070072917A1, “Substituted 2-aminotetralin for the treatment of depression” (SRZ Properties, Inc., priority 2003, published 2007).

Entries after “also recorded” stand apart in the source; their conditions may differ.

One test relates to bulbectomised rats. In words: bulbectomy study (olfactory bulbs removed on both sides). Type of test: in vivo, Sprague-Dawley rats. The conditions noted are these: low doses, 3 minutes on test field. Here is the method: In a further animal model (embodiment 3), it was examined whether the antidepressive effects of rotigotine can be distinguished from a general motor stimulation. In this case, rotigotine was administered to rats whose olfactory bulbs had been removed on both sides. The removal of the olfactory bulb leads to an adaptive hyperactivity in the untreated control group. It is known from literature that chronically administered antidepressants lead to a reduction in the movement activity of the animals in this model, whereas stimulants further increase the motor activity (van Riezen H et al, Br J. Pharmacol. 60(4), 1977, 521; Kelly J P et al, Pharmacol Ther. 74(3), 1997, 299). Therefore, it is possible to discriminate between antidepressive and non-specific stimulatory effects of an active ingredient with this model. […] The bulbectomy study was carried out on Sprague-Dawley rats. A sham-operated group, which was operated on without removal of the olfactory bulbs, served as a control group. 14 days after the operation, the rats were treated with vehicle, a rotigotine depot suspension (every second day) or imipramine. On test days, the rats were placed onto a test field and left to themselves for 3 minutes. The locomotor activities of the animals were thereby measured on the basis of the number of lines crossed.

In test [1] the test system is rats. The experiment in a line: forced swim test. The conditions noted are these: repeated swim test, subcutaneously applied. It is filed as in vivo. The text has this:
The “forced swim test” is an animal model in which depressive episodes are triggered by acute stress. In this test, rats are forced to swim in a limited space. After initial attempts to save themselves, in which the animals realise the hopelessness of the situation, they lapse into immobility. On repetition of the experiment, the animals remain immobile from the start of the experiment. If the animals are pre-treated with antidepressants, the period of immobility in the repeated test is shortened and the animals generally commence search and escape movements immediately after transfer into the water basin (Porsolt, Biomedicine 30, 1979, 139).

The test system of test [2] is rats. In words: learned helplessness test. Type of test: in vivo. Conditions: several days of administration, low concentrations / depending on the dose, vs vehicle control (HC). Here is the method: In the “learned helplessness test”, rats are repeatedly subjected to uncontrollable stress. This brings about an impaired learning ability in the animals in a later situation (for example after 48 hours) in which they could escape the stress again. Following the sub-chronic but not acute administration of antidepressants, the learning ability normalises again and the animals learn to escape the (announced) stress (in time) (Sherman, Pharmacology Biochemistry & Behavior 16, 1982, 449).

For `CCCN(CCc1cccs1)C1CCc2c(O)cccc2C1` (single isomer, unassigned; (-)) [rotigotine, (−)-5,6,7,8-tetrahydro-6-[propyl[2-(2-thienyl)ethyl]amino]-1-naphthol], the “bulbectomy-induced locomotor hyperactivity (number of lines crossed)” value in the test with bulbectomised rats is “almost complete suppression of the bulbectomy-induced locomotor hyperactivity; also recorded: significant antidepressive effect; also recorded: significantly reduce motor hyperactivity”. Besides, the period of immobility entry is recorded as “significant antidepressive effect; also recorded: clear reduction in the period of immobility” in the test with rats [1] and “significantly shortened period of immobility” in the test with rats [1] (listed as Rotigotine). For the same compound, the learning behaviour result in the test with rats [2] is on record as “significant antidepressive effect”.
